Experiments:
primary human islet cell = assay: Sytox Green cell death assay in dissociated human islets treated with HTR1F agonist; assay type: cell-based; details: 24 hours, two independent donors
Description: Dissociated human islets were treated with the indicated doses of LY344864 for 24 hours. Dead cells were monitored by Sytox Green. The number of Sytox Green nuclei were normalized to cell density measured by bright field imaging. n=4 biological replicates for each donor. *p<0.05, **p<0.01 by post-hoc Student's t-test after one-way ANOVA versus vehicle treatment.
(§1) Human beta cell death and proliferation: Islets were dissociated and plated on 804G coated plates as done for the screens. For Sytox Green assays, islets were plated into 96 well plates and Sytox Green (Thermo) was added to the media (30 nM) and green fluorescence and bright field images were captured at 24 hours during culture (Incucyte). The number of green nuclei normalized to the cell density (calculated by brightfield image) was measured in biological triplicate (FIG. 2A). For FIG. 3C, dead nuclei were normalized to total nuclei as measured after treatment of the cells with 0.0625% Triton X-100. For the in vitro TUNEL assay (FIG. 2B and FIG. 2C), cells were fixed in 4% paraformaldehyde in calcium/magnesium free PBS for 15 minutes at room temperature, permeabilized with 0.1% Triton X-100 for 1 hour, blocked with 10% donkey serum in PBS for 1 hour at room temperature, and stained with guinea pig anti-insulin antibody (Agilent) overnight at 4 degrees. […]

primary human beta cells = assay: TUNEL / insulin staining of dissociated human islets (beta cell death); assay type: cell-based; details: at 10 nM, 24 hours, 4 donors
Description: A representative image is shown. White arrows represent cells that are TUNEL+ insulin+ cells. Scale bar is 25 μM.
Given differences in baseline cell death between donors, the fold increase in the fraction of TUNEL+ beta cells over vehicle control is plotted. Standard error is shown, n=4 donors with at least 400 beta cells counted for each donor. *p<0.05, one-way ANOVA, post-hoc tested against vehicle.
as §1

HTR1F [1] = target: T1, HTR1F (Homo sapiens, UniProt P30939); details: read-out: reported EC50; cited from earlier work
T1 sequence (P30939 1-366): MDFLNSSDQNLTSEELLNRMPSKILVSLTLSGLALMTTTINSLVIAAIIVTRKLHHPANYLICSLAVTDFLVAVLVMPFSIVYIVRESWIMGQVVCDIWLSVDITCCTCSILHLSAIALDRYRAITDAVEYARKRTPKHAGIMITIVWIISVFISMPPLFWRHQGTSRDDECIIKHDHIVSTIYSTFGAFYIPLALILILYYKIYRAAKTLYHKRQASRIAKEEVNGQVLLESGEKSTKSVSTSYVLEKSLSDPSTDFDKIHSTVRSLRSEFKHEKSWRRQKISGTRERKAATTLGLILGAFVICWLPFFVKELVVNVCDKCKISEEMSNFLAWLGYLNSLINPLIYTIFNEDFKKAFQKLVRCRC

other HTR1 receptors = details: cited from earlier work
[2] = target: other serotonin family GPCRs and adrenergic receptors; details: cited from earlier work
dissociated human islets = assay: Sytox Green cell death in dissociated human islets with thapsigargan and methysergide; assay type: cell-based; details: 48 hours
Description: Each graph is from an independent donor. *p<0.05 for thapsigargan and for the interaction between methysergide and thapsigargan by 2-way ANOVA. Standard error is shown.
as §1, with “degrees. Secondary antibody was anti-guinea pig 488 (Thermo) at 1:300 for 1 hour at room temperature. For TUNEL staining, In Situ Death Detection Kit, TMR red (Roche) was used per the manufacturer's protocol in combination with insulin staining as above.” for “degrees.”

[3] = tested on: scd beige mice receiving human islets; assay: Minimal (marginal mass) human islet transplant model with methysergide; assay type: in vivo, mouse; details: islets 300 nM 24 hours; mice 10 mg/kg daily peri-transplant, 5 days; p<0.05 log-rank
Description: Taken together, FIGS. 3A-3D illustrate the prevention of human beta cell death by blocking of HTR1F signaling.
Minimal human islet transplant model with methysergide: Human islets were treated with 300 nM methysergide maleate or vehicle for 24 hours after isolation. Seven-hundred IEq were then transplanted under the kidney capsule of scd beige mice. Four hours prior to transplant, recipient mice were injected with either 10 mg/kg methysergide maleate or vehicle. After transplant, mice were injected every 24 hours with 10 mg/kg methysergide or vehicle for 5 days. After 48 hours without methysergide treatment to allow washout of the drug, streptozotocin (250 mg/kg) was injected into the peritoneal space with 1 mL of normal saline injected subcutaneously for hydration. […] Blood glucose was assessed by glucometer (Freestyle Lite) after a 6 hour fast (9 am-3 pm). […]
To ask if improved human beta cell survival due to HTR1F inhibition could improve glycemia after transplant, human islets were treated with methysergide or vehicle and then a marginal mass of islets was transplanted into mice. […] After 2 days to allow for methysergide clearance, the endogenous mouse beta cells were destroyed using streptozotocin and monitored for diabetes development. […]

HTR1F [4] = target: T1, HTR1F; details: cited from earlier work
[5] = cited from earlier work
human islets = assay: Glucose-stimulated insulin release in human islets; assay type: cell-based; details: 150 nM, 11 mM glucose, 9 human islet donors, vs DMSO
Description: Human islets were rested for 24 hours after receipt in CMRL 1066 (Media Tech) supplemented with penicillin and streptomycin, B27 supplement, Glutamax (Thermo), and non-essential amino acids (Thermo). For both the test treatment group and the control treatment group, 40-60 islets for each of the 5 replicates were hand-picked. The islets were equilibrated for two hours at 37° C. in Kreb-Ringer Bicarbonate HEPES Buffer pH 7.4 (KRBH; 137 mM NaCl, 4.7 mM KCl, 1.2 mM KH2PO4, 1.2 mM MgSO4, 2.5 mM CaCl2), 25 mM NaHCO3, 20 mM HEPES, 2.8 mM glucose, and 0.25% BSA). Equilibration buffer was then removed and islets were incubated at 37° C. with KRBH pH 7.4 with 2.8 mM glucose and 0.25% BSA and were treated with DMSO or 150 nM HTR1F antagonist 1-(2-hydroxy-3-(naphthalen-2-yloxy)propyl)-4-(quinolin-3-yl)piperidin-4-ol. After 1 hour, islet secretion was collected and islets were treated with KRBH pH 7.4 containing 11 mM glucose and 0.25% BSA and were treated with DMSO or 150 nM antagonist at 37° C. for another hour. Following incubation, islet secretions were collected and the islets were lysed in RIPA buffer to determine the total islet insulin content. Islet secretions were diluted 2-5 fold for analysis with the Mercodia insulin ELISA kit and lysates were diluted 200-500 fold for analysis. […]

HTR1F [6] = target: T1, HTR1F; assay: Glosensor cAMP assay in 293T cells transfected with HTR1F cDNA; assay type: cell-based; design: from tissue; host or cells: primary human islets from cadaveric donors, transplanted under the kidney capsule of scid-beige mice; details: 10 minutes pre-treatment, serotonin 5 nM then forskolin
Description: 293T cells were transiently transfected with the Glosensor plasmid (Promega) and the HTR1F cDNA. The cells were pre-treated with 1-(2-hydroxy-3-(naphthalen-2-yloxy)propyl)-4-(quinolin-3-yl)piperidin-4-ol at the concentrations shown in FIG. 4 for 10 minutes, then with serotonin (5 nM), and then forskolin and luminescence was determined. n=5, error bars show standard error. […] N=5 per concentration.

[7] = tested on: MIN6 cells transfected with GFP-T2A-HTR1F; assay: MIN6 cell death after HTR1F expression (propidium iodide); assay type: cell-based, mouse; details: 200 ng/mL pre-incubation, 32-40 hours after transfection
Description: GFP+ cells were assessed for cell death by propidium iodide staining 32-40 hours after transfection. […] Significant post-hoc Holm adjusted Student's t-test comparisons are shown. n=33 for each group conducted over 3 independent experiments. Taken together, FIGS. 2A-2D illustrate the induction of primary human beta cell death by HTR1F signaling.
MIN6 cell death: The human HTR1F cDNA was cloned from 293T cDNA and cloned downstream of a CMV promoter GFP-T2A expression vector with the addition of a viral signal sequence and FLAG epitope tag as previously described. The sequence was confirmed by Sanger sequencing. 10,000 MIN6 cells were plated in a 96-well plate. The following day, the cells were transfected with either the parental GFP-T2A expression vector or GFP-T2A-HTR1F using Lipofectamine 2000 (Thermo Fisher). Six hours after transfection, the media was changed to one containing propidium iodide (Thermo Fisher) at 0.3 ug/mL. The percentage of GFP+ cells that were also PI+ was measured by automated fluorescence microscopy (IncuCyte, Essen Biosciences) at 32-40 hours after transfection. For pertussis toxin (Enzo), cells were treated with 200 ng/mL during cell plating and during transfection.

CN(C)[C@@H]1CCc2[nH]c3ccc(NC(=O)c4ccc(F)cc4)cc3c2C1 [LY344864]
primary human islet cell death (Sytox Green) (primary human islet cell): increase primary human islet cell death | beta cell death (TUNEL+ insulin+ cells) (primary human beta cells): increase beta cell death | EC50 (HTR1F [1]): 0.003 µM | Ki (other HTR1 receptors): > 0.5 µM | Ki [2]: 1.5 to 5 µM

CC[C@@H](CO)NC(=O)[C@@H]1C=C2c3cccc4c3c(cn4C)C[C@H]2N(C)C1 [methysergide, (6aR,9R)—N—((S)-1-hydroxybutan-2-yl)-4,7-dimethyl-4,6,6a,7,8,9-hexahydroindolo[4,3-fg]quinoline-9-carboxamide]
effect on death triggered by thapsigargan (dissociated human islets; 30 nM methysergide with 10 μM thapsigargan): prevent death | effect of methysergide alone on islet cell death (dissociated human islets; 30 nM, dissociated cultures): no effect | diabetes-free survival / development of diabetes after streptozotocin [3]: protect mice from the development of diabetes | inhibition of HTR1F (HTR1F [4]): potently inhibit | risk during chronic treatment ([5]; chronic treatment): risk of retroperitoneal fibrosis | insulin secretion in humans ([5]; humans): increase insulin secretion

OC(COc1ccc2ccccc2c1)CN1CCC(O)(c2cnc3ccccc3c2)CC1 (centres unmarked) [1-(2-hydroxy-3-(naphthalen-2-yloxy)propyl)-4-(quinolin-3-yl)piperidin-4-ol]
increase in insulin secretion at high glucose concentration (human islets): 40% | inhibition of HTR1F (cAMP luminescence) (HTR1F [6]): inhibition of HTR1F

pertussis toxin
effect on HTR1F-induced cell death [7]: blocked
